{
  "source": "ChEMBL document CHEMBL5154826",
  "about": "“Discovery of the Clinical Candidate MAK683: An EED-Directed, Allosteric, and Selective PRC2 Inhibitor for the Treatment of Advanced Malignancies” (J Med Chem, 2022)",
  "key": {"[1]": {"assay": "Dissociation constant, pKa of compound", "type": "physicochemical"}, "[2]": {"assay": "High throughput solubility of the compound at pH 7 after 16 to 24 hrs by MS/MS analysis", "type": "physicochemical", "details": "buffer, time 16-24 hrs, read-out: solubility"}, "[3]": {"assay": "Antitumor activity against human Karpas-422 cells xenografted Athymic BALB/c nude mouse assessed as inhibition of tumor growth at 30 mg/kg, po bid, for 33 days", "type": "functional", "set-up": "scale not given: the % may be the effect or the level left", "details": "time 33 day"}, "[4]": {"assay": "Antitumor activity against human Karpas-422 cells xenografted Athymic BALB/c nude mouse assessed as minimum effective dose administered twice a day for 30 days", "type": "functional", "details": "KARPAS-422, 720 h, time 30 day, read-out: MED"}, "[5]": {"assay": "In vivo inhibition of PRC2 in PBMC collected from human Karpas-422 cells xenografted Athymic NTac:NIH-Whn nude rat assessed as reduction in H3K27me3 level at 30 mg/kg, po, qd for 42 days measured after 4 hrs of last dose by FACS method", "type": "functional", "set-up": "scale not given: the % may be the effect or the level left", "details": "time 42 day"}, "[6]": {"assay": "Volume of distribution at steady state in Sprague-Dawley rat at 2 mg/kg, po or 1 mg/kg, iv after 1 week by LC-MS/MS analysis", "type": "ADME, organism-based", "details": "in vivo, 168 h, time 1 weeks"}, "[7]": {"assay": "Dose normalized Cmax in Sprague-Dawley rat at 2 mg/kg, po or 1 mg/kg, iv after 1 week by LC-MS/MS analysis", "type": "ADME, organism-based", "details": "in vivo, 168 h, time 1 weeks"}, "[8]": {"assay": "Metabolic stability in mouse microsomes assessed as intrinsic clearance", "type": "ADME, Microsome", "details": "read-out: CLH"}, "[9]": {"assay": "Plasma clearance in mouse", "type": "ADME, cell-free"}, "[10]": {"assay": "Plasma clearance in rat assessed as hepatic extraction", "type": "ADME, cell-free", "details": "read-out: ERH"}, "[11]": {"assay": "Plasma clearance in dog assessed as hepatic extraction", "type": "ADME, cell-free, Canis lupus familiaris", "details": "read-out: ERH"}, "[12]": {"assay": "Plasma protein binding in mouse at 1 uM measured after 6 hrs LC-MS/MS analysis", "type": "ADME, cell-free", "details": "read-out: PPB (converted)"}, "[13]": {"target": "Synaptic vesicular amine transporter (Homo sapiens, UniProt Q05940)", "sequence (Q05940 whole entry)": "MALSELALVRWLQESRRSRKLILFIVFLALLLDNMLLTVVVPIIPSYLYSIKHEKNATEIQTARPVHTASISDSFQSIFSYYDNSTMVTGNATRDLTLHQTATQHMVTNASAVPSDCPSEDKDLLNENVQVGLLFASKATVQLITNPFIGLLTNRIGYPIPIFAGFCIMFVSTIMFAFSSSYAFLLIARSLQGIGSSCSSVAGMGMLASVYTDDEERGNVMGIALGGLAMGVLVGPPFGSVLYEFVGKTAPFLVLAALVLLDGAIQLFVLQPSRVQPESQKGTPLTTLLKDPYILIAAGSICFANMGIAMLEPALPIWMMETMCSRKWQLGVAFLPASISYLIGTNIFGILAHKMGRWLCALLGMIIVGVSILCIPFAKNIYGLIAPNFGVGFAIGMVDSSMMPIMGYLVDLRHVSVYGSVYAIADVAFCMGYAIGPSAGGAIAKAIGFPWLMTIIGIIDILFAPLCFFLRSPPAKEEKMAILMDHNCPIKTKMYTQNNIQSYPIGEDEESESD", "assay": "Inhibition of vesicular monoamine transporter 2 (unknown origin)"}, "[14]": {"assay": "Toxicity in rat assessed as effect on adrenal gland", "details": "in vivo"}},
  "data": [
    {"molecule": "Cc1ncccc1-c1cnc(NCc2c(F)ccc3c2CCO3)n2cnnc12", "values": [
      {"measurement": "pKa", "setting": "[1]", "result": 5.2},
      {"measurement": "solubility", "setting": "[2]", "result": 19, "unit": "µM"},
      {"measurement": "Activity", "setting": "[3]", "result": 100, "unit": "%"},
      {"measurement": "minimal effective dose", "setting": "[4]", "result": 3, "unit": "mg/kg"},
      {"measurement": "Activity", "setting": "[5]", "result": 93, "unit": "%"},
      {"measurement": "Vdss", "setting": "[6]", "result": 2, "unit": "L/kg"},
      {"measurement": "Cmax/dose", "setting": "[7]", "result": 427, "unit": "nM"},
      {"measurement": "microsomal CLint", "setting": "[8]", "result": 22, "unit": "µL/min/mg"},
      {"measurement": "clearance", "setting": "[9]", "result": 38, "unit": "mL/min/kg"},
      {"measurement": "hepatic extraction ratio", "setting": "[10]", "result": 0.18},
      {"measurement": "hepatic extraction ratio", "setting": "[11]", "result": 0.35},
      {"measurement": "fraction unbound at 6 h, 1 µM", "setting": "[12]", "result": 0.15},
      {"measurement": "IC50", "setting": "[13]", "result": 1800, "unit": "nM"},
      {"measurement": "Activity", "setting": "[14]", "result": "Non-Toxic"}
    ]}
  ]
}
